# Measurements taken from patent publication US8785431B2, “Prodrugs of (1S,9S)-9-[[(1S)-1-carboxy-3-phenylpropyl]amino]octahydro-10-oxo-6H-pyridazino[1,2-a][1,2]diazepine-1-carboxylic acid and their use in transdermal therapeutic systems” (Hexal AG, priority 2011, dated 2014).
# How the values were obtained:
# [1] = Rate of hydrolysis in porcine skin homogenate at 37° C. (HPLC or HPLC-MS); assay type: in vitro ADME; settings: for reaction kinetics in porcine skin homogenate: in words; for half-life: pig
# Description: (§1) To assess whether the synthesised cilazapril prodrugs undergo enzymatic cleavage, metabolic studies were carried out in three well established incubation media for the investigation of transdermal administration.
# Due to its similarities with human skin, in terms of enzyme activity and distribution, a porcine skin homogenate (25% w/w in PBS-buffer, 0.65 U/ml, 1.3 mg/ml (Bradford)) was used for the metabolic studies.
# (§2) Incubation mixtures were prepared by adding a respective prodrug stock solution to porcine skin homogenate (PSH), human plasma and buffered porcine liver esterase (PLE), respectively.
# (§3) All samples were incubated in a water bath at 37° C. After 72 h samples of the incubation mixtures (200 μl) were collected. To all samples 400 μl of ice-cold acetonitrile were added. After vortex mixing the samples were allowed to stand in a refrigerator for approx. 30 min. The samples were then centrifuged at 13000 rpm (13000 g) for 5 min. The supernatants were collected and stored at −78° C. until HPLC analysis. To 200 μl of each supernatant 400 μl of aqueous 0.05% trifluoroacetic acid were added prior to injection.
# (§4) The kinetics of the hydrolysis of the cilazapril prodrugs in the different incubation media was analysed by HPLC or HPLC-MS.
# (§5) The rate of hydrolysis of cilazapril, of some cilazapril prodrugs and cilazapril ethyl ester in porcine skin homogenate, human plasma and buffered porcine liver esterase at 37° C. are presented in Table 4.
# [2] = in vitro; assay type: in vitro ADME
# Description: as §1
# Human plasma (CPD plasma, 3.82 U/ml), which contains i.a. cholinesterase and acetylcholinesterase, was used as the second incubation media.
# as §2, §3, §4, §5
# [3] = system: porcine liver esterase; assay: Rate of hydrolysis in buffered porcine liver esterase at 37° C. (HPLC or HPLC-MS); assay type: in vitro ADME; settings: for half-life: pig
# Description: as §1
# (§6) Buffered porcine liver esterase (suspension in 3.2 M (NH4)2SO4 solution, pH 8, 12 mg prot./ml (Biuret), 260 U/mg prot.) was chosen as the third incubation media, because porcine liver esterase mimics the carboxylesterase present in the human skin.
# as §2, §3, §4, §5
# [4] = Metabolic studies in enzyme-containing incubation mixtures (porcine skin homogenate, human plasma, buffered porcine liver esterase), results in words; assay type: in vitro ADME; settings: 37° C.; for degradation / reaction kinetics of enzymatic hydrolysis: enzyme-containing incubation mixtures; for enzymatic cleavage / hydrolysis to cilazaprilate: incubation mixtures
# Description: as §1, §6, §2
# as §3, with “After 72 h samples of the incubation mixtures (200 μl) were collected.” left out
# as §4
# [5] = Stability in transdermal therapeutic system (10% in BioPSA Hex 7-4302), extraction and HPLC; assay type: physicochemical; settings: TTS
# Description: The stability of the prodrugs in the transdermal therapeutic system was determined after different storage times and temperatures by extraction of the transdermal therapeutic system with an organic solvent and subsequent analysis by HPLC.
# The stability of the cilazapril prodrugs (1) and (2) in therapeutic transdermal systems was controlled at 25° C./60% relative humidity and compared with the cilazapril in a TTS having the same adhesive layer.
# [6] = Crystallization in the TTS; assay type: physicochemical; settings: after 14 months
# Description: Moreover, the TTSs with the prodrugs (1), (2) and (6) were examined with regard to crystallization.
# [7] = In vitro skin permeation from TTS through human skin (two-compartment diffusion cell); assay type: in vitro ADME; settings: TTS on human skin, 32±1° C., 96 hours, FIG. 1
# Description: Furthermore the permeability of the prodrugs through the skin was measured by in vitro skin permeation. The in vitro skin permeation of the prodrugs (1), (2) and (6) and of cilazapril through human skin was evaluated using the TTS as prepared in any one of examples 8, 9, and 11.
# The flux was determined by using a two-compartment diffusion cell with a section of human skin mounted between the cell halves. A TTS was adhered to one side of the skin and a drug-receiving medium was placed on the receptor-side of the cell. The apparatus was placed in a water bath maintained at 32±1° C. Samples of the receptor medium were collected over a period of 96 hours for HPLC analysis of drug concentration.
# [8] = Stability of 10% cilazapril in an acrylic adhesive (Durotak 87-4098, Henkel); assay type: physicochemical; settings: 10% in acrylic adhesive Durotak 87-4098
# Description: Instability in a semisolid dosage form is also a problem with cilazapril. Although cilazapril has a more rigid structure than other ACE-inhibitors and has no distinct tendency to intramolecular cyclisation, it presents stability problems in adhesive layers of transdermal therapeutic systems as shown in Table 1.
# [9] = porcine skin homogenate, 37° C.
# [10] = 9 months, 25° C./60% relative humidity
Structure (SMILES),reaction kinetics in porcine skin homogenate [1],"half-life [1, 9] [h]","f50% (h), time by which 50% of total cilazaprilate has been formed ([2]; human) [h]","half-life ([2]; human, plasma) [h]",half-life [3] [h],degradation / reaction kinetics of enzymatic hydrolysis [4],enzymatic cleavage / hydrolysis to cilazaprilate [4],"assay [%] ([5]; 0 months, uncontrolled)","assay [%] [5, 10] [%]",crystallization in the TTS [6],in vitro skin flux compared to the cilazapril TTS [7],other results
"CCOC(=O)OC(C)OC(=O)[C@@H]1CCCN2CCCC(N[C@@H](CCc3ccccc3)C(=O)OCC)C(=O)N12 (stereo partly drawn) [compound 1, (1S,9S)-1-(ethoxycarbonyloxy)ethyl 9-[[(1S)-1-ethoxycarbonyl-3-phenylpropyl]amino]-10-oxooctahydro-1H-pyridazino[1,2-a][1,2]diazepine-1-carboxylate]",fast reaction kinetics,0.43,154,0.58,0.67,fast degradation,formation of cilazaprilate as the final metabolite,99.3,98.0,none of the TTS showed crystallization,increase in in vitro skin flux,
"CCOC(=O)[C@H](CCc1ccccc1)NC1CCCN2CCC[C@@H](C(=O)OC(C)OC(=O)CN3CCOCC3)N2C1=O (stereo partly drawn) [compound 7, (1S,9S)-1-(2-morpholinoacetoxy)ethyl 9-[[(1S)-1-ethoxycarbonyl-3-phenylpropyl]amino]-10-oxooctahydro-1H-pyridazino[1,2-a][1,2]diazepine-1-carboxylate]",,0.33,132,0.83,0.77,fast reaction kinetics,,,,,,
"CCOC(=O)[C@H](CCc1ccccc1)NC1CCCN2CCC[C@@H](C(=O)OC(C)OC(C)=O)N2C1=O (stereo partly drawn) [compound 4, (1S,9S)-1-(acetoxy)ethyl 9-[[(1S)-1-ethoxycarbonyl-3-phenylpropyl]amino]-10-oxooctahydro-1H-pyridazino[1,2-a][1,2]diazepine-1-carboxylate]",,0.5,91.2,0.68,0.63,fast degradation,formation of cilazaprilate as the final metabolite,,,,,
"CCOC(=O)[C@H](CCc1ccccc1)N[C@H]1CCCN2CCC[C@@H](C(=O)OCC)N2C1=O [cilazapril ethyl ester, reference compound]",,,,,,,no hydrolysis to cilazaprilate was detectable,,,,,"t1/2 [1, 9]: 0.35 h; t1/2 ([2]; human plasma, 37° C.): 11.9 h; t1/2 [3]: 0.69 h; enzymatic cleavage / hydrolysis to cilazaprilate ([4]; listed as ethyl ester of cilazapril): stable against enzymatic cleavage"
"CCOC(=O)[C@H](CCc1ccccc1)NC1CCCN2CCC[C@@H](C(=O)OC(C)OC(=O)C(C)(C)C)N2C1=O (stereo partly drawn) [compound 5, (1S,9S)-1-(2,2-dimethylpropanoyloxy)ethyl 9-[[(1S)-1-ethoxycarbonyl-3-phenylpropyl]amino]-10-oxooctahydro-1H-pyridazino[1,2-a][1,2]diazepine-1-carboxylate]",,1,33.6,5.1,3.8,fast degradation,formation of cilazaprilate as the final metabolite,,,,,
"CCOC(=O)[C@H](CCc1ccccc1)NC1CCCN2CCC[C@@H](C(=O)OC(C)OC(=O)OC3CCCCC3)N2C1=O (stereo partly drawn) [compound 2, (1S,9S)-1-(cyclohexyloxycarbonyloxy)ethyl 9-[[(1S)-1-ethoxycarbonyl-3-phenylpropyl]amino]-10-oxooctahydro-1H-pyridazino[1,2-a][1,2]diazepine-1-carboxylate]",fast reaction kinetics,1.4,228,3.2,4.2,fast degradation,formation of cilazaprilate as the final metabolite,100.0,98.3,none of the TTS showed crystallization,increase in in vitro skin flux,
"CCOC(=O)[C@H](CCc1ccccc1)NC1CCCN2CCC[C@@H](C(=O)OC(C)OC(=O)OC(C)C)N2C1=O (stereo partly drawn) [compound 3, (1S,9S)-1-(isopropyloxycarbonyloxy)ethyl 9-[[(1S)-1-ethoxycarbonyl-3-phenylpropyl]amino]-10-oxooctahydro-1H-pyridazino[1,2-a][1,2]diazepine-1-carboxylate]",,1,108,1.9,1.5,fast degradation,formation of cilazaprilate as the final metabolite,,,,,
"CCOC(=O)[C@H](CCc1ccccc1)N[C@H]1CCCN2CCC[C@@H](C(=O)OCCN3CCOCC3)N2C1=O [compound 6, (1S,9S)-2-morpholinoethyl 9-[[(1S)-1-ethoxycarbonyl-3-phenylpropyl]amino]-10-oxooctahydro-1H-pyridazino[1,2-a][1,2]diazepine-1-carboxylate]",fast reaction kinetics,0.5,10.8,1.3,0.95,fast reaction kinetics,,98.1,94.7,none of the TTS showed crystallization,increase in in vitro skin flux,
"CCOC(=O)[C@H](CCc1ccccc1)N[C@H]1CCCN2CCC[C@@H](C(=O)O)N2C1=O [cilazapril, (1S,9S)-9-[[(1S)-1-ethoxycarbonyl-3-phenylpropyl]amino]octahydro-10-oxo-6H-pyridazino[1,2-a][1,2]diazepine-1-carboxylic acid, reference compound]",,9.4,,,3.3,,,99.8,97.0,,,"assay [%] ([8]; 0 months, uncontrolled): 98.1%; assay [%] ([8]; 3 weeks, 25° C./60% relative humidity): 98.0%; assay [%] ([8]; 3 weeks, 40° C./75% relative humidity): 95.9%; assay [%] ([8]; 7 months, 25° C./60% relative humidity): 91.9%; assay [%] ([8]; 7 months, 40° C./75% relative humidity): 80.4%; half-life ([2]; human plasma, 37° C., read-out: t1/2 (converted)): 88.8 h"
